Data on 14 compounds can be found in patent publication US10954196B2, “Method for producing 5-hydroxy-1H-imidazole-4 carboxamide 3/4 hydrate” (FUJIFILM Corporation, priority 2017, dated 2021).

A short description of data set [1]: Test Example 1: test of coloring stability during storage (washed product). The data set is classed as physicochemical. The following applies: visually observed after storage for 5 days, air atmosphere, light shielding, 60° C., 75% relative humidity, hydrate. Here is the method:
About 1 g of the test substance was placed in a storage bag formed by stacking two 0.04 mm-thick polyethylene bags, sealed in each polyethylene bag, and stored for 5 days in an air atmosphere under the conditions of light shielding, 60° C., and 75% relative humidity. The tone of the test substance after the test was visually observed. In addition, a change in the color of the crystal before and after the test was measured with a spectrophotometric color difference meter to determine the color difference. Colorimeter: spectrophotometric color difference meter SE2000 manufactured by Nippon Denshoku Industries Co., Ltd. Measurement method: reflection method

Data set [2] in a line: Test Example 3: coloring stability during storage (unwashed product). The format is physicochemical. As to conditions: light shielding, 60° C., 75% relative humidity, hydrate; for Color difference (ΔE): before vs after storage for 5 days, spectrophotometric color difference meter, reflection method; for Tone: visually observed after storage for 5 days, air atmosphere.
The conditions of data set [3]: as disclosed in Test Example 1 and Test Example 2 of WO2009/035168A; cited from earlier work.

As to `NC(=O)c1nc[nH]c1O.O` [Example 10, 5-hydroxy-1H-imidazole-4-carboxamide•¾ hydrate], the Tone result in data set [1] and in data set [2] was “White” in each case. Moreover, in data set [2], the “Color difference (ΔE)” value is on record as 2.2.
In the case of `NC(=O)c1nc[nH]c1O.O` [Example 12, 5-hydroxy-1H-imidazole-4-carboxamide•¾ hydrate], the Tone result in data set [1] and in data set [2] was “White” throughout.
In the case of `NC(=O)c1nc[nH]c1O` [compound A, 5-Hydroxy-1H-imidazole-4-carboxamide], the “Coloring stability (color change)” value in data set [3] was “changed color to indigo blue or blue”.
For the compound `NC(=O)c1nc[nH]c1O.O` [Example 11, 5-hydroxy-1H-imidazole-4-carboxamide•¾ hydrate], in data set [1], the Tone entry is given as “White”. Further, in data set [2], the “Color difference (ΔE)” value worked out at 1.6 and the Tone result was “White”.
As to `NC(=O)c1nc[nH]c1O.O` [Example 3, 5-hydroxy-1H-imidazole-4-carboxamide•¾ hydrate], the Tone result in data set [1] is given as “White”. For the same compound, in data set [2], the “Color difference (ΔE)” value came out at 1.1 and the Tone entry is reported as “White”.
As to `NC(=O)c1nc[nH]c1O.O` [Comparative Example 2, 5-hydroxy-1H-imidazole-4-carboxamide•¾ hydrate, reference compound], in data set [2], the “Color difference (ΔE)” value came out at 51.4 and the Tone entry is recorded as “Black blue”.
Regarding `NC(=O)c1nc[nH]c1O.O` [Example 9, 5-hydroxy-1H-imidazole-4-carboxamide•¾ hydrate], the Tone result in data set [1] was “White”. In addition, in data set [2], the “Color difference (ΔE)” value came out at 0.9 and the Tone entry is “White”.
Regarding `NC(=O)c1nc[nH]c1O.O` [Example 5, 5-hydroxy-1H-imidazole-4-carboxamide•¾ hydrate], the Tone entry in data set [1] is recorded as “White”. Further, in data set [2], the “Color difference (ΔE)” value came out at 4.1 and the Tone entry is given as “White”.
Take `NC(=O)c1nc[nH]c1O.O` [Example 8, 5-hydroxy-1H-imidazole-4-carboxamide•¾ hydrate]: in data set [1], the Tone result is “White”. Besides, in data set [2], the “Color difference (ΔE)” value turned out to be 1.4 and the Tone result was “White”.
As to `NC(=O)c1nc[nH]c1O.O` [Example 2, 5-hydroxy-1H-imidazole-4-carboxamide•¾ hydrate], in data set [1], the Tone entry is reported as “White”. In data set [2], the “Color difference (ΔE)” value is on record as 3.1 and the Tone result is listed as “White”.
On to `Cl.NC(=O)c1nc[nH]c1O` [hydrochloride of the compound A], for which the “Coloring stability (color change)” value in data set [3] is listed as “stable”.
For `NC(=O)c1nc[nH]c1O.O` [Example 7, 5-hydroxy-1H-imidazole-4-carboxamide•¾ hydrate], the Tone entry in data set [1] was “White”. In data set [2], the “Color difference (ΔE)” value is listed as 1.0 and the Tone result is on record as “White”.
With `NC(=O)c1nc[nH]c1O.O` [Comparative Example 1, 5-hydroxy-1H-imidazole-4-carboxamide•¾ hydrate, reference compound], in data set [2], the “Color difference (ΔE)” value is listed as 62.4 and the Tone result is recorded as “Black blue”.
With `NC(=O)c1nc[nH]c1O.O` [Example 4, 5-hydroxy-1H-imidazole-4-carboxamide•¾ hydrate], the Tone entry in data set [1] and in data set [2] was “White” throughout. Moreover, the “Color difference (ΔE)” value in data set [2] worked out at 2.3.
